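These data come from cells grown in 96-well plates and exposed to compound for 48 hours at five concentrations. GI50 = concentration required for 50% inhibition of growth. The concentration for full growth arrest is given as TGI.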
Assays:
Experiment in all cases: inhibition of tumour cell growth, NCI panel, 48 h
OVCAR-4 ovarian = test system: OVCAR-4 ovarian
SR leukemia = test system: SR leukemia
MOLT-4 leukemia = test system: MOLT-4 leukemia
PC-3 prostate = test system: PC-3 prostate
UO-31 renal = test system: UO-31 renal
A549 NSCLC = test system: A549 NSCLC
SK-MEL-2 melanoma = test system: SK-MEL-2 melanoma
SN12C renal = test system: SN12C renal
ACHN renal = test system: ACHN renal
SNB-75 CNS = test system: SNB-75 CNS
SF-295 CNS = test system: SF-295 CNS
NCI-H522 lung = test system: NCI-H522 lung
HOP-62 NSCLC = test system: HOP-62 NSCLC
U251 CNS = test system: U251 CNS
IGROV1 ovarian = test system: IGROV1 ovarian
COLO 205 colon = test system: COLO 205 colon
HCC-2998 colon = test system: HCC-2998 colon
CCRF-CEM leukemia = test system: CCRF-CEM leukemia
OVCAR-3 ovarian = test system: OVCAR-3 ovarian
HT29 colon = test system: HT29 colon
NCI-H460 lung = test system: NCI-H460 lung
SK-MEL-28 melanoma = test system: SK-MEL-28 melanoma
LOX IMVI melanoma = test system: LOX IMVI melanoma
KM12 colon = test system: KM12 colon
SNB-19 CNS = test system: SNB-19 CNS
786-0 renal = test system: 786-0 renal
TK-10 renal = test system: TK-10 renal
RXF 393 renal = test system: RXF 393 renal
SF-268 CNS = test system: SF-268 CNS
MDA-MB-231 breast = test system: MDA-MB-231 breast
SW-620 colon = test system: SW-620 colon
UACC-257 melanoma = test system: UACC-257 melanoma
A498 renal = test system: A498 renal
BT-549 breast = test system: BT-549 breast
MDA-MB-435 = test system: MDA-MB-435
NCI/ADR-RES ovarian = test system: NCI/ADR-RES ovarian
HCT-15 colon = test system: HCT-15 colon
NCI-H23 lung = test system: NCI-H23 lung
SK-OV-3 ovarian = test system: SK-OV-3 ovarian
NCI-H226 lung = test system: NCI-H226 lung
SF-539 CNS = test system: SF-539 CNS
T-47D breast = test system: T-47D breast
K-562 leukemia = test system: K-562 leukemia
SK-MEL-5 melanoma = test system: SK-MEL-5 melanoma
OVCAR-5 ovarian = test system: OVCAR-5 ovarian
M14 melanoma = test system: M14 melanoma
RPMI-8226 leukemia = test system: RPMI-8226 leukemia
HS 578T breast = test system: HS 578T breast
CAKI-1 renal = test system: CAKI-1 renal
UACC-62 melanoma = test system: UACC-62 melanoma
OVCAR-8 ovarian = test system: OVCAR-8 ovarian
HOP-92 NSCLC = test system: HOP-92 NSCLC
EKVX NSCLC = test system: EKVX NSCLC
HCT-116 colon = test system: HCT-116 colon
MCF7 breast = test system: MCF7 breast
DU-145 prostate = test system: DU-145 prostate

Question: Which results are given for O=c1[nH]nc(-c2nn(-c3ccc(Cl)cc3)cc2O)o1?
Answer: TGI (OVCAR-4 ovarian): > 100000 nM; GI50 (SR leukemia): 33.4 nM; TGI (SR leukemia): 266 nM; GI50 (MOLT-4 leukemia): 53.7 nM; TGI (MOLT-4 leukemia): 944 nM; GI50 (PC-3 prostate): 401 nM; TGI (PC-3 prostate): > 100000 nM; GI50 (UO-31 renal): 331 nM; TGI (UO-31 renal): > 34300 nM; GI50 (A549 NSCLC): 91.3 nM; TGI (A549 NSCLC): > 100000 nM; GI50 (SK-MEL-2 melanoma): 536 nM; TGI (SK-MEL-2 melanoma): 46200 nM; GI50 (SN12C renal): 119 nM; TGI (SN12C renal): 5770 nM; GI50 (ACHN renal): 142 nM; TGI (ACHN renal): > 100000 nM; GI50 (SNB-75 CNS): 227 nM; TGI (SNB-75 CNS): > 100000 nM; GI50 (SF-295 CNS): 51.8 nM; TGI (SF-295 CNS): > 100000 nM; GI50 (NCI-H522 lung): 696 nM; TGI (NCI-H522 lung): > 100000 nM; GI50 (HOP-62 NSCLC): 99 nM; TGI (HOP-62 NSCLC): 36000 nM; GI50 (U251 CNS): 25 nM; TGI (U251 CNS): > 100000 nM; GI50 (IGROV1 ovarian): 117 nM; TGI (IGROV1 ovarian): > 100000 nM; GI50 (COLO 205 colon): 3250 nM; TGI (COLO 205 colon): > 100000 nM; GI50 (HCC-2998 colon): 238 nM; TGI (HCC-2998 colon): 3500 nM; GI50 (CCRF-CEM leukemia): 303 nM; TGI (CCRF-CEM leukemia): > 62100 nM; GI50 (OVCAR-3 ovarian): 472 nM; TGI (OVCAR-3 ovarian): 12500 nM; GI50 (HT29 colon): 2020 nM; TGI (HT29 colon): > 100000 nM; GI50 (NCI-H460 lung): 42.9 nM; TGI (NCI-H460 lung): > 100000 nM; GI50 (SK-MEL-28 melanoma): 25100 nM; TGI (SK-MEL-28 melanoma): > 100000 nM; GI50 (LOX IMVI melanoma): 194 nM; TGI (LOX IMVI melanoma): > 43300 nM; GI50 (KM12 colon): 134 nM; GI50 (SNB-19 CNS): 187 nM; TGI (SNB-19 CNS): > 100000 nM; GI50 (786-0 renal): 519 nM; TGI (786-0 renal): 36500 nM; GI50 (TK-10 renal): 37.6 nM; TGI (TK-10 renal): 276 nM; GI50 (RXF 393 renal): 741 nM; TGI (RXF 393 renal): > 72400 nM; GI50 (SF-268 CNS): 117 nM; TGI (SF-268 CNS): > 100000 nM; GI50 (MDA-MB-231 breast): 4560 nM; TGI (MDA-MB-231 breast): > 50400 nM; GI50 (SW-620 colon): 470 nM; TGI (SW-620 colon): > 100000 nM; GI50 (UACC-257 melanoma): 610 nM; TGI (UACC-257 melanoma): > 100000 nM; GI50 (A498 renal): 87 nM; TGI (A498 renal): 464 nM; GI50 (BT-549 breast): 19.1 nM; TGI (BT-549 breast): 219 nM; GI50 (MDA-MB-435): 20.5 nM; GI50 (NCI/ADR-RES ovarian): 121 nM; TGI (NCI/ADR-RES ovarian): 2750 nM; GI50 (HCT-15 colon): 152 nM; TGI (HCT-15 colon): > 100000 nM; GI50 (NCI-H23 lung): 108 nM; TGI (NCI-H23 lung): 673 nM; GI50 (SK-OV-3 ovarian): 385 nM; TGI (SK-OV-3 ovarian): > 100000 nM; GI50 (NCI-H226 lung): 133 nM; TGI (NCI-H226 lung): 3730 nM; GI50 (SF-539 CNS): 74.1 nM; TGI (SF-539 CNS): 2240 nM; GI50 (T-47D breast): 221 nM; TGI (T-47D breast): > 100000 nM; GI50 (K-562 leukemia): 46 nM; GI50 (SK-MEL-5 melanoma): 201 nM; TGI (SK-MEL-5 melanoma): 1440 nM; GI50 (OVCAR-5 ovarian): 499 nM; TGI (OVCAR-5 ovarian): > 100000 nM; GI50 (M14 melanoma): 132 nM; TGI (M14 melanoma): 13000 nM; GI50 (RPMI-8226 leukemia): 172 nM; GI50 (HS 578T breast): 61.9 nM; TGI (HS 578T breast): 3160 nM; GI50 (CAKI-1 renal): 156 nM; TGI (CAKI-1 renal): 13000 nM; GI50 (UACC-62 melanoma): 166 nM; TGI (UACC-62 melanoma): 2820 nM; GI50 (OVCAR-8 ovarian): 317 nM; TGI (OVCAR-8 ovarian): > 100000 nM; GI50 (HOP-92 NSCLC): 280 nM; GI50 (EKVX NSCLC): 92.5 nM; TGI (EKVX NSCLC): 904 nM; GI50 (HCT-116 colon): 71.8 nM; TGI (HCT-116 colon): 927 nM; GI50 (MCF7 breast): 340 nM; TGI (MCF7 breast): > 100000 nM; GI50 (DU-145 prostate): 56.2 nM; TGI (DU-145 prostate): 1450 nM

From PubChem BioAssay (NCI)
